Measurements: PubChem BioAssay (NCI)
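In this assay, cells in 96-well plates receive the compound at five concentrations for 48 hours. Endpoints are linearly interpolated between the surrounding concentrations. TGI denotes the concentration required for complete inhibition of growth.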

Columns and labels:
Test in all cases: NCI anticancer screen, dose series, 48 h
[1] = test system: LOX IMVI melanoma
[2] = test system: OVCAR-3 ovarian
[3] = test system: CAKI-1 renal
[4] = test system: PC-3 prostate
[5] = test system: HOP-62 NSCLC
[6] = test system: SK-MEL-2 melanoma
[7] = test system: HCT-116 colon
[8] = test system: SR leukemia
[9] = test system: NCI-H460 lung
[10] = test system: T-47D breast
[11] = test system: SK-MEL-28 melanoma
[12] = test system: NCI-H23 lung

Compound `CC(=O)OCC1OC(n2c(=S)[nH]c(-c3ccccc3)c(C#N)c2=O)C(OC(C)=O)C(OC(C)=O)C1OC(C)=O` (stereo unspecified) has a TGI [1] of over 100 µM, a TGI [2] of over 100 µM and a TGI [3] of over 100 µM. For the same compound, the TGI [4] was over 100 µM, the TGI [5] was over 100 µM and the TGI [6] was over 100 µM. It also gave a TGI [7] of over 100 µM, a TGI [8] of over 100 µM and a TGI [9] of over 100 µM. The TGI [10] was over 100 µM, the TGI [11] was over 100 µM and the TGI [12] was over 100 µM.

`O=[N+]([O-])C(=C(Sc1ccccc1)Sc1ccccc1)C(Cl)=C(Cl)Cl` was tested, and the TGI [1] was 1.09 µM, the TGI [2] was 1.31 µM and the TGI [3] was 1.61 µM. It also gave a TGI [4] of 5.78 µM, a TGI [5] of 4.09 µM and a TGI [6] of 5.86 µM. The TGI [7] was 0.125 µM, the TGI [8] was 0.564 µM and the TGI [9] was 16.6 µM. The TGI [10] was 1.14 µM, the TGI [11] was 1.09 µM and the TGI [12] was 2.91 µM.

`N#CC(C#N)=C1CCCS(=O)(=O)c2ccccc21` was tested, and the TGI [1] was over 100 µM, the TGI [2] was over 100 µM and the TGI [3] was over 100 µM. It also gave a TGI [4] of over 100 µM, a TGI [5] of over 100 µM and a TGI [6] of over 100 µM. The TGI [7] was over 100 µM, the TGI [8] was over 100 µM and the TGI [9] was over 100 µM. The TGI [10] was over 100 µM, the TGI [11] was over 100 µM and the TGI [12] was over 100 µM.

Compound `O=C1/C(=C/c2ccc([N+](=O)[O-])cc2)CNC/C1=C\c1ccc([N+](=O)[O-])cc1` has a TGI [1] of 5.93 µM, a TGI [2] of 9.61 µM and a TGI [3] of 4.67 µM. The TGI [4] was 21.7 µM, the TGI [5] was 15.9 µM and the TGI [6] was over 100 µM. It also gave a TGI [7] of 1.97 µM, a TGI [8] of 1.15 µM and a TGI [9] of 12.7 µM. The TGI [10] was over 81.3 µM, the TGI [11] was 5.49 µM and the TGI [12] was 9.77 µM.

`Cc1cccc(C[C@@]2(SCc3ccccc3)C(C)(C)[C@@H]3CC[C@@]2(C)C3)n1` was tested, and the TGI [1] was 30.2 µM, the TGI [2] was 29.5 µM and the TGI [3] was 48.1 µM. The TGI [4] was 35.7 µM, the TGI [5] was 60.2 µM and the TGI [6] was 27.8 µM. The TGI [7] was 31.9 µM, the TGI [8] was 31.9 µM and the TGI [9] was 31.3 µM. It also gave a TGI [10] of 24.9 µM, a TGI [11] of 45.3 µM and a TGI [12] of 31.4 µM.

Compound `O=C1C(Br)=Cc2c(Cl)sc(Cl)c21` has a TGI [1] of 5.84 µM, a TGI [2] of 12.1 µM and a TGI [3] of 8.99 µM. It also gave a TGI [4] of 6.83 µM, a TGI [5] of 28.6 µM and a TGI [6] of 32.3 µM. It also gave a TGI [7] of 6.25 µM, a TGI [8] of 15.5 µM and a TGI [9] of 53.3 µM. The TGI [10] was 7.58 µM, the TGI [11] was 41.3 µM and the TGI [12] was 30.6 µM.

For `COC(c1ccc(C(C)(C)C)cc1)(c1ccc(C(C)(C)C)cc1)c1cc(C(O)(c2cc(C(OC)(c3ccc(C(C)(C)C)cc3)c3ccc(C(C)(C)C)cc3)c(C)cc2C)c2cc(C(OC)(c3ccc(C(C)(C)C)cc3)c3ccc(C(C)(C)C)cc3)c(C)cc2C)c(C)cc1C`, the TGI [1] was over 100 µM, the TGI [2] was over 100 µM and the TGI [3] was over 100 µM. For the same compound, the TGI [4] was over 100 µM, the TGI [5] was over 100 µM and the TGI [6] was over 100 µM. For the same compound, the TGI [7] was over 100 µM, the TGI [8] was over 100 µM and the TGI [9] was over 100 µM. It also gave a TGI [10] of over 100 µM, a TGI [11] of over 100 µM and a TGI [12] of over 100 µM.

Compound `CN(O)C(=O)Cc1ccc(OCc2cccc(Cl)c2)cc1` has a TGI [1] of over 100 µM, a TGI [2] of over 100 µM and a TGI [3] of over 100 µM. The TGI [4] was over 100 µM, the TGI [5] was over 100 µM and the TGI [6] was over 100 µM. The TGI [7] was over 100 µM, the TGI [8] was over 100 µM and the TGI [9] was over 100 µM. The TGI [10] was over 100 µM, the TGI [11] was over 100 µM and the TGI [12] was over 100 µM.
